Measured values taken from ChEMBL document CHEMBL3352426, “A natural phenylpropionate derivative from Mirabilis himalaica inhibits cell proliferation and induces apoptosis in HepG2 cells” (Bioorg Med Chem Lett, 2014).
≈ marks a conversion by molar mass, not a printed value. Calls of active or inactive are those of the source. No cut-off for these calls is given here.

Key:
[1] = system: HepG2; test: Induction of alteration in mitochondrial membrane potential in human HepG2 cells assessed as decrease Rh-123 fluorescence at 5 ug/ml after 48 hrs by flow cytometric analysis; assay type: functional; settings: HepG2, 48 h
[2] = system: HepG2; test: Induction of apoptosis in human HepG2 cells assessed as assessed as accumulation at G2/M phase after 48 hrs by propidium iodide staining-based flow cytometric analysis (reference value: 10.4%); assay type: functional
[3] = system: HepG2; test: Induction of apoptosis in human HepG2 cells assessed as increase in Bax level after 48 hrs by Western blot analysis; assay type: functional, cell-based
[4] = system: HepG2; test: Induction of alteration in mitochondrial membrane potential in human HepG2 cells assessed as decrease Rh-123 fluorescence after 48 hrs by flow cytometric analysis; assay type: functional, cell-based
[5] = system: HepG2; test: Induction of apoptosis in human HepG2 cells transfected with pBabe-puro assessed as apoptotic cell accumulation after 48 hrs by annexin V/propidium iodide staining-based flow cytometric analysis; assay type: functional
[6] = system: Mus musculus; test: Toxicity in human HepG2 cells injected in ip dosed mouse assessed as change in body weight; assay type: organism-based; settings: in vivo
[7] = system: HepG2; test: Induction of apoptosis in human HepG2 cells transfected with p53 shRNA assessed as apoptotic cell accumulation after 48 hrs by annexin V/propidium iodide staining-based flow cytometric analysis; assay type: functional
[8] = system: HepG2; test: Effect on Cyclin D1 expression in human HepG2 cells after 48 hrs by Western blot analysis; assay type: functional, cell-based
[9] = system: HepG2; test: Induction of apoptosis in human HepG2 cells transfected with pBabe-puro with Bcl2 assessed as apoptotic cell accumulation after 48 hrs by annexin V/propidium iodide staining-based flow cytometric analysis; assay type: functional
[10] = system: HepG2; test: Induction of alteration in mitochondrial membrane potential in human HepG2 cells assessed as decrease Rh-123 fluorescence at 20 ug/ml after 48 hrs by flow cytometric analysis; assay type: functional; settings: HepG2, 48 h
[11] = system: HepG2; test: Cytotoxicity against human HepG2 cells assessed as inhibition of cell proliferation after 48 hrs by CCK8 assay; assay type: functional, cell-based
[12] = system: HepG2; test: Induction of apoptosis in human HepG2 cells assessed as decrease in Bcl2 level after 48 hrs by Western blot analysis; assay type: functional, cell-based
[13] = system: HepG2; test: Induction of alteration in mitochondrial membrane potential in human HepG2 cells assessed as decrease Rh-123 fluorescence at 10 ug/ml after 48 hrs by flow cytometric analysis; assay type: functional; settings: HepG2, 48 h
[14] = system: HepG2; test: Effect on CDK4 expression in human HepG2 cells after 48 hrs by Western blot analysis; assay type: functional, cell-based
[15] = system: HepG2; test: Antitumor activity against human HepG2 cells injected in ip dosed mouse assessed as reduction in tumor size treated for 13 days; assay type: functional
[16] = system: HepG2; test: Increase in p21 expression in human HepG2 cells after 48 hrs by Western blot analysis; assay type: functional, cell-based
[17] = system: HepG2; test: Cytotoxicity against human HepG2 cells assessed as inhibition of cell proliferation at 2.5 to 40 ug/ml by CCK8 assay; assay type: functional, cell-based; settings: TDE = time-dependent effect
[18] = system: HepG2; test: Cytotoxicity against human HepG2 cells assessed as inhibition of cell proliferation at 20 ug/ml by MTT assay; assay type: functional
[19] = system: HepG2; test: Effect on Cyclin A expression in human HepG2 cells after 48 hrs by Western blot analysis; assay type: functional, cell-based
[20] = system: HepG2; test: Induction of apoptosis in human HepG2 cells assessed as caspase 3 activation after 48 hrs by Western blot analysis; assay type: functional, cell-based
[21] = system: HepG2; test: Effect on CDK6 expression in human HepG2 cells after 48 hrs by Western blot analysis; assay type: functional, cell-based
[22] = system: HepG2; test: Induction of apoptosis in human HepG2 cells assessed as assessed as accumulation at G0/G1 phase after 48 hrs by propidium iodide staining-based flow cytometric analysis (reference value: 70.8%); assay type: functional
[23] = system: HepG2; test: Effect on CDK2 expression in human HepG2 cells after 48 hrs by Western blot analysis; assay type: functional, cell-based
[24] = system: HepG2; test: Increase in p53 expression in human HepG2 cells after 48 hrs by Western blot analysis; assay type: functional, cell-based
[25] = system: HepG2; test: Cytotoxicity against human HepG2 cells assessed as decrease in positive staining after 1 hr by BrdU immunofluorescence assay relative to untreated control; assay type: functional
[26] = system: HepG2; test: Induction of apoptosis in human HepG2 cells assessed as assessed as increase in apoptotic cells after 48 hrs by annexin V/propidium iodide staining-based flow cytometric analysis; assay type: functional
[27] = Cytotoxicity against human L02 cells assessed as assessed as apoptotic cells after 48 hrs by annexin V/propidium iodide staining-based flow cytometric analysis; assay type: cell-based; settings: l02, 48 h
[28] = system: HepG2; test: Induction of apoptosis in human HepG2 cells assessed as assessed as accumulation at S phase after 48 hrs by propidium iodide staining-based flow cytometric analysis (reference value: 18.9%); assay type: functional

COc1cc(OC(=O)/C=C/c2ccc(O)cc2OC)ccc1O
inhibition at 5 µg/mL [1]: 37.1% | Activity [2]: 11.4% | Activity [3]: Active | inhibition [4]: Dose-dependent effect | Activity [5]: 75.4% | Activity [6]: Non-toxic | Activity [7]: 68.8% | Activity [8]: inactive | Activity [9]: 26.9% | inhibition at 20 µg/mL [10]: 84.9% | inhibition [11]: Dose-dependent effect | IC50 ([11]; HepG2, 48 h): 15.1 µg/mL (≈ 47.8 µM) | inhibition [12]: Active | inhibition at 10 µg/mL [13]: 69.5% | Activity [14]: inactive | inhibition (INH) [15]: 50% | Activity [16]: Active | inhibition [17]: tde | inhibition at 20 µg/mL [18]: 37% | Activity [19]: inactive | Activity [20]: Active | Activity [21]: inactive | Activity [22]: 52.6% | Activity [23]: inactive | Activity [24]: Active | inhibition (INH) [25]: 40% | Activity [26]: 89.9% | Activity [27]: Non-toxic | Activity [28]: 36%
